Values of other authors in patent US9937198B2, “Multi-functional composition and preparation method and application thereof” (Suzhou Sciscape Bio-Pharmaceutical Technology Co., Ltd., priority 2013, dated 2018).

What was measured:
[1] = test system: rats; conditions: cited from earlier work
[2] = test system: bees and other beneficial insects; conditions: in vivo; cited from earlier work
[3] = pure validamycin A; cited from earlier work

Q: Which results are given for `OCC1=C[C@@H](N[C@H]2C[C@H](CO)[C@@H](O[C@H]3O[C@@H](CO)[C@H](O)[C@@H](O)[C@@H]3O)[C@H](O)[C@H]2O)[C@H](O)[C@@H](O)[C@@H]1O` [Validamycin A, validamycin A]?
A: acute oral toxicity (LD50) in rats [1]: above 20 g/kg; toxicity to bees and other beneficial insects [2]: no toxicity; solubility in water [3]: soluble in water
